Like-named read-outs stand apart in the source and are kept apart here.
Tests used:
[1] = test system: L. (L.) infantum promastigotes; test: Antileishmanial activity against promastigotes, MTT assay; assay type: cell-based, Leishmania (L.) infantum; conditions: 48 h at 24°C, highest concentration 200 µM, na = not active, read-out: Promastigotes IC50 (C.I.95%)
Method: (§1) L. (L.) infantum (MHOM/BR/1972/LD) promastigotes were maintained in M-199 medium supplemented with 10% fetal bovine serum (FBS) and 0.25% hemin at 24°C. L. (L.) infantum was maintained in golden hamsters for up to approximately 60–70 days post-infection. The amastigotes were obtained from the spleens of previously infected hamsters by differential centrifugation. The macrophages were collected from the peritoneal cavity of BALB/c mice by washing with RPMI-1640 (without phenol red and supplemented with 10% FBS). NCTC (clone 929) murine conjunctive cells were maintained in RPMI-1640 (without phenol red and supplemented with 10% FBS) at 37°C in a humidified containing 5% CO2.
Promastigotes were counted in a Neubauer hemocytometer and seeded at 1×10^6 cells per well in 96-well microplates using miltefosine as standard drug. The tested compounds were incubated at the highest concentration of 200 µM for 48 h at 24°C. Parasite viability was determined using the MTT assay. Briefly, 3-[4,5-dimethylthiazol-2-yl]-2,5-diphenyltetrazolium bromide (MTT) was dissolved in phosphate-buffered saline (PBS) at 5 mg/mL, sterilized through 0.22 µm membranes and incubated with cells (20 µL/well) for 4 h at 24°C. The extraction of the mitochondrial formazan was done with 80 µL of 10% SDS for 18 h at 24°C. The optical density was determined in FilterMax F5 (Molecular Devices) at 570 nm. Promastigotes incubated without compounds were used as the viability control (100% viability) and without cells (blank).
(§2) The obtained data represent the mean and standard deviation of two independent experiments performed in duplicate. The IC50 and CC50 values were calculated using sigmoid dose-response curves performed using GraphPad Prism version 5.0 (GraphPad Software, San Diego, CA, USA), and the 95% confidence intervals (95% CI) were included. The ANOVA test was performed to evaluate the significance (p<0.05) of data.

[2] = test system: intracellular L. (L.) infantum amastigotes; test: Activity against intracellular amastigotes in infected macrophages, Giemsa counting; assay type: cell-based, Leishmania (L.) infantum; conditions: for IC50 / Amastigotes IC50 (C.I.95%): BALB/c peritoneal macrophages infected with amastigotes, 120 h at 37°C, na = not active; for IC50: read-out: Amastigotes IC50 (C.I.95%)
Method: as §1
The activity against intracellular L. (L.) infantum amastigotes was determined in infected macrophages. Macrophages were obtained as previously described and seeded for 24 h at 1×10^5 cells/well in 16-well slide chambers (Nunc). Amastigotes were isolated from the spleens of previously infected hamsters, separated by differential centrifugation and added to the macrophages at a ratio of 1∶10 (macrophage/amastigotes) for 24 h at 37°C. Non-internalized parasites were removed by washing once with medium and the cells were then incubated with the test compounds for 120 h at 37°C in 5% CO2, using miltefosine as standard drug. At the end of the assay, the cells were fixed in methanol, stained with Giemsa and observed under a light microscope to determine the number of intracellular parasites. The number of amastigotes was determined in 400 macrophages from the drug-treated and control wells [15].
as §2

[3] = test system: NCTC clone 929 murine conjunctive cells; test: Cytotoxicity against mammalian cells, MTT assay; assay type: cell-based; conditions: NCTC clone 929, 48 h at 37°C, highest concentration 200 µM; for CC50: read-out: Cytotoxicity CC50 (C.I.95%)
Method: as §1
(§3) NCTC cells were seeded at 6×10^4 cells/well in 96-well microplates at 37°C in a 5% CO2. The mammalian cells were incubated with tested compounds to the highest concentration of 200 µM for 48 h at 37°C, using miltefosine as standard drug. The viability of the cells was determined by MTT assay at 570 nm. The selectivity index (SI) was determined considering the following equation: CC50 NCTC cells/IC50 amastigotes.
as §2

[4] = Cytotoxicity against mammalian cells, MTT assay; assay type: cell-based, murine; conditions: mouse, NCTC clone 929 murine conjunctive cells, NCTC clone 929, 48 h at 37°C, highest concentration 200 µM, read-out: Cytotoxicity CC50 (C.I.95%)
Method: as §1, §3, §2

Row | IC50 ([2]; Leishmania infantum, Peritoneal macrophage, in Mus musculus) | SMILES | IC50 [1] | IC50 [2] | CC50 [3] | Amastigotes IC50 (C.I.95%) [2] | Cytotoxicity CC50 (C.I.95%) [3] | IC50 ([1]; Leishmania infantum) | S.I. selectivity index (CC50 mammalian cells/IC50 amastigotes) ([2]; CC50 NCTC cells/IC50 amastigotes) | CC50 at 48 h [4]
1 | – | Cc1ccc(SCC2=C(O)C(=O)c3ccccc3C2=O)cc1 [Compound 1] | > 200 µM | > 200 µM | 89.1 µM | – | – | – | – | –
2 | – | O=C1C(O)=C(CSc2ccccc2)C(=O)c2ccccc21 [Compound 2] | 124 µM | – | 84.7 µM | no activity | – | – | – | –
3 | – | COc1ccc(SCC2=C(O)C(=O)c3ccccc3C2=O)cc1 [Compound 3] | 75 µM | – | 92.6 µM | no activity | – | – | – | –
4 | – | O=C1C(O)=C(CSc2ccc(Cl)cc2)C(=O)c2ccccc21 [Compound 4] | 85.4 µM | – | 82.2 µM | no activity | – | – | – | –
5 | – | O=C1C(O)=C(CSc2ccc(F)cc2)C(=O)c2ccccc21 [Compound 5] | 129 µM | – | 97.9 µM | no activity | – | – | – | –
6 | – | CSc1ccc(SCC2=C(O)C(=O)c3ccccc3C2=O)cc1 [Compound 6] | 188 µM | – | 100 µM | no activity | – | – | – | –
7 | – | O=C1C(O)=C(CSc2ccc([N+](=O)[O-])cc2)C(=O)c2ccccc21 [Compound 7] | 8.44 µM | – | 85.5 µM | no activity | – | – | – | –
8 | – | CCCSCC1=C(O)C(=O)c2ccccc2C1=O [Compound 9] | > 200 µM | > 200 µM | > 200 µM | – | lack of toxicity | – | – | –
9 | – | Cc1ccccc1SCC1=C(O)C(=O)c2ccccc2C1=O [Compound 13] | > 200 µM | > 200 µM | > 200 µM | – | lack of toxicity | – | – | –
10 | – | Cc1cccc(SCC2=C(O)C(=O)c3ccccc3C2=O)c1 [Compound 14] | > 200 µM | > 200 µM | > 200 µM | – | lack of toxicity | – | – | –
11 | – | O=C1C(O)=C(CSc2ccc3ccccc3c2)C(=O)c2ccccc21 [Compound 15] | > 200 µM | > 200 µM | > 200 µM | – | lack of toxicity | – | – | –
12 | – | O=C1C(O)=C(C(Sc2ccc([N+](=O)[O-])cc2)c2ccccc2)C(=O)c2ccccc21 (stereo not drawn) [Compound 19] | 9.06 µM | – | 69.5 µM | no activity | – | – | – | –
13 | – | Cc1cccc(SC(C2=C(O)C(=O)c3ccccc3C2=O)c2ccccc2)c1 (stereo not drawn) [Compound 20] | 26.4 µM | 14.7 µM | 138 µM | – | – | – | – | –
14 | – | CCCSC(C1=C(O)C(=O)c2ccccc2C1=O)c1ccccc1 (stereo not drawn) [Compound 24] | > 200 µM | > 200 µM | > 200 µM | – | lack of toxicity | – | – | –
15 | – | Cc1ccc(SC(C2=C(O)C(=O)c3ccccc3C2=O)c2ccc([N+](=O)[O-])cc2)cc1 (stereo not drawn) [Compound 25] | 108 µM | – | 42.6 µM | no activity | – | – | – | –
16 | – | O=C1C(O)=C(C(Sc2ccccc2)c2ccc([N+](=O)[O-])cc2)C(=O)c2ccccc21 (stereo not drawn) [Compound 28] | 40.1 µM | – | 94.2 µM | no activity | – | – | – | –
17 | – | Cc1ccccc1SC(C1=C(O)C(=O)c2ccccc2C1=O)c1ccc([N+](=O)[O-])cc1 (stereo not drawn) [Compound 34] | 82.9 µM | – | 96 µM | no activity | – | – | – | –
18 | – | CCCSC(C1=C(O)C(=O)c2ccccc2C1=O)c1ccc([N+](=O)[O-])cc1 (stereo not drawn) [Compound 35] | > 200 µM | > 200 µM | 75.1 µM | – | – | – | – | –
19 | – | O=C1C(O)=C(C(Sc2ccc3ccccc3c2)c2ccc([N+](=O)[O-])cc2)C(=O)c2ccccc21 (stereo not drawn) [Compound 36] | > 200 µM | > 200 µM | 58.2 µM | – | – | – | – | –
20 | 17.8 µM | CCCCCCCCCCCCCCCCOP(=O)([O-])OCC[N+](C)(C)C [miltefosine, reference compound] | – | – | – | – | – | 16.9 µM | 6.85 | 122 µM

Reference: PMC4149375, “Potential of 2-Hydroxy-3-Phenylsulfanylmethyl-[1,4]-Naphthoquinones against Leishmania (L.) infantum: Biological Activity and Structure-Activity Relationships” (PLoS ONE, 2014)
